Assay results reported in patent publication US6818643B1, “Neurotrophic bicyclic diamides” (Bristol-Myers Squibb Company, priority 1999, dated 2004).

What was measured:
FKBP12 [1] = target: T1, FKBP12 (Homo sapiens, UniProt P62942); experiment: FKBP12 Rotamase Inhibition Assay; type: biochemical
Experimental: FKBP12 Rotamase Inhibition Assay
The rotamase activity of FKBP-12 was measured by an adaptation of the assay described by Kofron et al. (Biochemistry, 30, pp. 6127-6134 (1991)). The assay was carried out at 4° C. with 1 mg chymotrypsin/mL of assay with succinyl-Ala-Leu-Pro-Phe-p-nitroanilide as the substrate. Chymotrypsin rapidly hydrolyzes the peptide bond on the C-terminal side of the Phe of the trans form of the peptide and releases the chromogenic p-nitroaniline. The rate of the reaction is controlled by the rate of conversion of the cis form of the peptide to the trans-form, the reaction catalyzed by FKBP12. The apparent Ki values for inhibition of the rotamase activity were determined by measuring decreases in the first order rate constant of the reaction catalyzed by FKBP12 as a function of the concentrations of the compounds described herein. Ki is the concentration of the compound that causes 50 percent inhibition of rotamase activity which is indicative of neurite outgrowth activity.

FKBP12 [2] = target: T1, FKBP12; experiment: Fluorescence Polarization (FP) Assay of FKBP12 Binding; conditions: for Ki: rotamase Ki derived from FP assay; for inhibition at 1 µM: read-out: % FP inhibition at 1 μM
Experimental: Fluorescence Polarization (FP) Assay of FKBP12 Binding
The buffer (25 mM HEPES, 100 mM sodium chloride, pH 7.5) with pre-mixed enzyme and fluorescent ligand is distributed into wells (190 μL/well). Inhibitors are added as 10 μL of a 10% dimethylsulfoxide solution in the same buffer. FP is measured with an excitation wavelength of 485 nm and emission wavelength of 520 nm.

[3] = Table 1, 1 μM compound, 100 nM fluorescent ligand, 200 nM FKBP12
[4] = Table 2, 1 μM compound, 100 nM fluorescent ligand, 200 nM FKBP12

T1 sequence (P62942 whole entry, species assumed): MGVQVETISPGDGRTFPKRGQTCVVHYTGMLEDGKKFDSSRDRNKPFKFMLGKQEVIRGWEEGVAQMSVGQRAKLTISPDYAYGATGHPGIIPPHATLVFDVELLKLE

CCC(C)(C)C(=O)C(=O)N1CCCC[C@H]1C(=O)OC(CCCc1ccccc1)CCNC(=S)Nc1ccc(-c2c3ccc(=O)cc-3oc3cc(O)ccc23)c(C(=O)O)c1 (stereo partly drawn) [fluorescent FKBP12 ligand, 1-Phenyl-6-(fluoresceinylaminothiocarbamoyl)-4-hexyl-(S)-N-(t-pentylglyoxyl)pipecolate, reference compound] showed a Ki (FKBP12 [1]; read-out: Ki measured by the prolyl isomerase assay) of 32 nM.
COc1ccc(CCC(Cc2ccc(OC)c(OC)c2)CN2CC3CCCC(C2=O)N3C(=O)C(=O)c2cc(OC)c(OC)c(OC)c2)cc1OC (centres unmarked) [Example 25, 9-(3,4,5-Trimethoxyphenyl)oxalyl-3,9-diaza-3-[4-(3,4-dimethoxyphenyl)-2-((3,4-dimethoxy-phenyl)methyl)butyl]bicyclo-[3.3.1]nonan-2-one] was tested, and the Ki (FKBP12 [2]; Table 2) was 18 nM.
COc1ccc(CCCN2C[C@H]3CC[C@@H](C2=O)N3C(=O)C(=O)c2cc(OC)c(OC)c(OC)c2)cc1OC [Example 3, (1S,5R)-8-(3,4,5-Trimethoxyphenyl)oxalyl-3,8-diaza-3-[3-(3,4-dimethoxyphenyl)propyl]bicyclo[3.2.1]octan-2-one] gave an inhibition at 1 µM (FKBP12 [2]; [3]) of 26% and a Ki (FKBP12 [2]; Table 1) of 380 nM.
COc1ccc(CCCC(CCCc2ccc(OC)c(OC)c2)CN2CC3CCCC(C2=O)N3C(=O)C(=O)c2cc(OC)c(OC)c(OC)c2)cc1OC (centres unmarked) [Example 24, 9-(3,4,5-Trimethoxyphenyl)oxalyl-3,9-diaza-3-[5-(3,4-dimethoxyphenyl)-2-(3-(3,4-dimethoxy-phenyl)propyl)pentyl]bicyclo-[3.3.1]nonan-2-one] showed a Ki (FKBP12 [2]; Table 2) of 21 nM.
Work on COc1cc(C(=O)C(=O)N2C3CCC2C(=O)N(C(CCc2ccccc2)CCc2ccccc2)C3)cc(OC)c1OC [Example 5, (1S,5R)-8-(3,4,5-Trimethoxyphenyl)oxalyl-3,8-diaza-3-[3-phenyl-1-(2-phenylethyl)propyl]bicyclo[3.2.1]octan-2-one] yielded an inhibition at 1 µM (FKBP12 [1]; Table 2, 1 μM compound) of 49%.
COc1cc(C(F)(F)C(=O)N2C3CCC2C(=O)N(C(CCc2ccccc2)CCc2ccccc2)C3)cc(OC)c1OC [Example 30, (1S,5R)-8-(3,4,5-Trimethoxyphenyl)difluoroacetyl-3,8-diaza-3-[3-phenyl-1-(2-phenylethyl)propyl]bicyclo[3.2.1]octan-2-one] showed an inhibition at 1 µM (FKBP12 [2]; [4]) of 4%.
In the case of COc1ccc(CCCCN2CC3CCCC(C2=O)N3C(=O)C(F)(F)c2cc(OC)c(OC)c(OC)c2)cc1OC (centres unmarked) [Example 36, 9-(3,4,5-Trimethoxyphenyl)difluoroacetyl-3,9-diaza-3-[4-(3,4-dimethoxyphenyl)butyl]bicyclo[3.3.1]-nonan-2-one], the Ki (FKBP12 [2]; Table 1) is reported as 160 nM and the inhibition at 1 µM (FKBP12 [2]) is reported as 61%.
Compound COc1cc(CCCN2C[C@H]3CC[C@@H](C2=O)N3C(=O)C(F)(F)c2cc(OC)c(OC)c(OC)c2)cc(OC)c1OC [Example 31, (1S,5R)-8-(3,4,5-Trimethoxyphenyl)difluoroacetyl-3,8-diaza-3-[3-(3,4,5-trimethoxyphenyl)propyl]bicyclo[3.2.1]octan-2-one] has a Ki (FKBP12 [2]; Table 1) of 598 nM and an inhibition at 1 µM (FKBP12 [2]) of 19%.
With COc1cc(C(=O)C(=O)N2[C@@H]3CC[C@H]2C(=O)N(CCCc2ccccc2)C3)cc(OC)c1OC [Example 1, (1S,5R)-8-(3,4,5-Trimethoxyphenyl)oxalyl-3,8-diaza-3-(3-phenylpropyl)bicyclo[3.2.1]octan-2-one] the inhibition at 1 µM (FKBP12 [2]; [3]) was 34% and the Ki (FKBP12 [2]; Table 1) was 699 nM.
Work on COc1ccc(CCN2CC3CCC(C2=O)N3C(=O)C(=O)c2cc(OC)c(OC)c(OC)c2)cc1OC [Example 2, (1S,5R)-8-(3,4,5-Trimethoxyphenyl)oxalyl-3,8-diaza-3-[2-(3,4-dimethoxyphenyl)ethyl]bicyclo[3.2.1]octan-2-one] yielded an inhibition at 1 µM (FKBP12 [2]; [3]) of 3%.
In the case of COc1ccc(CCC(CCc2ccccc2)CN2C[C@H]3CC[C@@H](C2=O)N3C(=O)C(=O)c2cc(OC)c(OC)c(OC)c2)cc1OC (stereo partly drawn) [Example 14, (1S,5R)-8-(3,4,5-Trimethoxyphenyl)oxalyl-3,8-diaza-3-[4-(3,4-dimethoxyphenyl)-2-(2-phenylethyl)butyl]-bicyclo[3.2.1]octan-2-one], the Ki (FKBP12 [2]; Table 2) is reported as 169 nM.
Work on COc1cc(C(F)(F)C(=O)N2C3CCC2C(=O)N(CC(CCCc2ccccc2)CCCc2ccccc2)C3)cc(OC)c1OC [Example 33, (1S,5R)-8-(3,4,5-Trimethoxyphenyl)difluoroacetyl-3,8-diaza-3-[5-phenyl-2-(3-phenyl-propyl)pentyl]bicyclo[3.2.1]-octan-2-one] yielded an inhibition at 1 µM (FKBP12 [2]; [4]) of 7%.
With COc1ccc(CCCCN2CC3CCC(C2=O)N3C(=O)C(F)(F)c2cc(OC)c(OC)c(OC)c2)cc1OC [Example 29, (1S,5R)-8-(3,4,5-Trimethoxyphenyl)difluoroacetyl-3,8-diaza-3-[4-(3,4-dimethoxyphenyl)butyl]bicyclo[3.2.1]octan-2-one] the inhibition at 1 µM (FKBP12 [2]; [3]) was 8%.
